According to the supplement of paper PMC7840683:
Where a name gives a salt, the structure may show the parent alone. ± gives the standard deviation of the averaged measurements.

Test system: HepaRG
Experiment: LDH release cytotoxicity, % of total lysis control; higher = more cytotoxic
Settings: 48 h
Method in brief: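 Single-lot HepaRG cells on collagen I-coated 96-well plates were exposed for 48 h in duplicate, in serum-free induction medium with 0.5% DMSO, to eight-point half-log series (test chemicals top 100 µM). Total lysis wells received 0.1% Triton X, and LDH leakage into 50 µL spent medium was read as resorufin fluorescence (CytoTox-ONE, Tecan Safire). Percent cytotoxicity was normalized to on-plate vehicle and total lysis controls and averaged over the duplicates.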

SMILES	LDH release cytotoxicity (0.03162 µM) [%]	LDH release cytotoxicity (0.1 µM) [%]	LDH release cytotoxicity (0.3162278 µM) [%]	LDH release cytotoxicity (1 µM) [%]	LDH release cytotoxicity (3.16228 µM) [%]	LDH release cytotoxicity (10 µM) [%]	LDH release cytotoxicity (31.6228 µM) [%]	LDH release cytotoxicity (100 µM) [%]	LDH release cytotoxicity (0.02356 µM) [%]	LDH release cytotoxicity (0.0745 µM) [%]	LDH release cytotoxicity (0.23559 µM) [%]	LDH release cytotoxicity (0.745 µM) [%]	LDH release cytotoxicity (2.3559 µM) [%]	LDH release cytotoxicity (7.45 µM) [%]	LDH release cytotoxicity (23.559 µM) [%]	LDH release cytotoxicity (74.5 µM) [%]
CC1=C(C(=O)Nc2ccccc2)SCCO1 [Carboxin]	-0.0118 ± 0.68	-0.836 ± 2.2	-1.79 ± 0.24	-0.232 ± 1.3	-1.1 ± 0.12	-0.0461 ± 0.17	3.07 ± 1.5	8.14 ± 2.8								
CCOC(=O)C(Cl)Cc1cc(-n2nc(C)n(C(F)F)c2=O)c(F)cc1Cl (stereo unspecified) [Carfentrazone-ethyl]	-0.276 ± 0.32	-1.32 ± 0.6	-0.782 ± 0.36	-0.573 ± 0.12	-0.524 ± 0.13	-0.0179 ± 0.2	-0.285 ± 0.48	1.22 ± 0.5								
CC(C)c1ccc(C(=O)N=C(N)N)cc1S(C)(=O)=O [Cariporide mesylate]									-0.0357 ± 0.59	-1.69 ± 0.56	-0.975 ± 1.1	-1.41 ± 0.45	-0.944 ± 0.16	-0.838 ± 0.12	-1.46 ± 0.13	-0.256 ± 0.4
Cc1c(C(=O)O)c(O)cc2c1C(=O)c1c(O)c(C3OC(CO)C(O)C(O)C3O)c(O)c(O)c1C2=O (stereo unspecified) [Carminic acid]	-11.2 ± 0.91	-11.08 ± 0.041	-10.7 ± 0.6	-11.1 ± 1.1	-11.2 ± 0.61	-11 ± 1.2	-9.8 ± 2.3	-10.4 ± 0.35								
Cc1ccc(-c2cc(C(F)(F)F)nn2-c2ccc(S(N)(=O)=O)cc2)cc1 [Celecoxib]	-1.06 ± 0.3	-0.435 ± 0.23	-0.88 ± 0.78	-1.96 ± 0.9	-1.21 ± 1	-0.583 ± 0.15	3.13 ± 1.4	89.34 ± 0.16								
Nc1cc(Cl)cc(C(=O)O)c1Cl [Chloramben]	0.283 ± 2.4	-1.57 ± 0.016	-0.351 ± 2.3	-0.882 ± 0.8	-1.46 ± 0.83	-0.217 ± 0.85	-0.618 ± 0.29	0.291 ± 0.12								
ClC1=C(Cl)C2(Cl)C3C(Cl)C(Cl)CC3C1(Cl)C2(Cl)Cl (stereo unspecified) [Chlordane]	-0.889 ± 1.7	-0.0312 ± 0.73	-1.4 ± 0.067	-2.2 ± 0.83	-1.5 ± 0.36	-0.57 ± 0.073	-0.758 ± 0.6	12 ± 4.7								
